The values that follow are results of earlier work, collected in patent US20040067252A1, “Novel modified release formulation” (priority 2001, published 2004).

Values after ≈ are worked out from the molar mass of the structure shown.

The conditions of this data set: at 25° C.

Consider `Cn1c(=O)c2[nH]cnc2n(C)c1=O` [theophylline], for which the water solubility is 8300 µg/mL (≈ 46.1 mM).
